Results on four compounds are retold here after patent US20240116879A1, “AMILORIDE DERIVATIVES AND METHODS OF USING SAME FOR THE TREATMENT OF VIRAL INFECTIONS” (priority 2020, published 2024).

Bounds are passed on as bounds.

The test system of series [1] is SARS-CoV-2 stem loop constructs (SL1, SL4, SL5a, SL5b, SL6). In kind it is binding. Conditions: RiboGreen displacement, Tris buffer pH 7.4.
The next series deals with human coronavirus OC43. In kind it is cell-based. Conditions: for effect on virus titer (in words): 50 μM or 100 μM, Vero E6, MOI=1, 24 hours at 33° C.; for reduced virus titer: 100 μM, Vero E6, MOI=1, 24 hr, plaque formation.
Series [2] concerns SARS-CoV-2 5′-end and 3′UTR. In kind it is cell-based.
Another series relates to VeroE6 cells. The conditions noted are these: uninfected VeroE6, 3 days of treatment, 10 μM and 50 μM.
The test system of series [3] is SARS-CoV-2. It is filed as cell-based. Conditions: for viral titer compared to DMSO (TCID50 assay): 10 μM and 50 μM, MOI 0.1, 3 days; for antiviral activity compared to parent scaffold DMA-01: Vero E6 infected with wild-type SARS-CoV-2.
The subject of the next series is Vero E6 cells. As to the kind of experiment: Cytotoxicity MTT assay in Vero E6 cells. In kind it is cell-based, African green monkey. The conditions noted are these: <10 μM, 96 hour, Vero E6. The method, then:
(§1) Cytotoxicity Assays: Various concentrations of DMAs were added to Vero E6 cells in culture. The cells were incubated at 33° C. for 96 hrs. Cell viability was determined by MTT assay and measured at 570 nm according to the manufacturer's instructions (EMD Millipore). All experiments were performed in triplicate. The concentration of DMAs required to reduce cell viability to 50% of the control cells was expressed as CC50.

A short description of series [4]: Cytotoxicity MTT assay in Vero E6 cells. In kind it is cell-based, African green monkey. The conditions noted are these: African green monkey, Vero E6 cells; Vero E6, 96 hrs, 33° C., MTT. How it is done: as §1
In a further series the test system is SARS-CoV-2 SL4 RNA. Briefly: Indicator displacement assay (IDA), SL4. Conditions: RiboGreen displacement, Tris buffer pH 7.4. It is filed as binding.
The test system of series [5] is SARS-CoV-2. Briefly: microbe, parasite or virus in culture. In kind it is cell-based. Conditions: Severe acute respiratory syndrome coronavirus 2, Vero C1008; Vero E6, MOI 0.1, within 24 hours of infection; read-out: approximate IC50, cell-free viral RNA levels.
The test system of another series is SARS-CoV-2 SL1 RNA. As to the kind of experiment: Indicator displacement assay (IDA), SL1. In kind it is binding. The conditions noted are these: RiboGreen displacement, Tris buffer pH 7.4.
The subject of the next series is SARS-CoV-2 SL6 RNA. As to the kind of experiment: Indicator displacement assay (IDA), SL6. Conditions: RiboGreen displacement, Tris buffer pH 7.4. In kind it is binding.

As for `CN(C)c1nc(N)c(C(=O)N=C(N)N)nc1Cl` [DMA-1, dimethylamiloride, reference compound], the “binding affinity against any of the constructs (IDA)” value in series [1] is on record as “did not show binding affinity”. Further, in the series with human coronavirus OC43, the “effect on virus titer (in words)” value was “no activity”.

`CN(C)c1nc(N)c(C(=O)NC(=N)N)nc1-c1ccccc1` [DMA-132]: the “reduction of FLuc activity” value in series [2] is “approximately 50%”. The “cellular viability as measured by ATP content” value in the series with VeroE6 cells was “without measurable effect on cellular viability”. Moreover, the “binding affinity against any of the constructs (IDA)” value in series [1] is given as “did not show binding affinity”. In the series on SARS-CoV-2 [3], the “viral titer compared to DMSO (TCID50 assay)” value is listed as “dose-dependent reduction in viral titer” and the “antiviral activity compared to parent scaffold DMA-01” value is listed as “improved antiviral activity”. Further, the cell viability entry in the series on Vero E6 cells is given as “do not significantly reduce cell viability”. Also, the CC50 at 96 h in series [4] was greater than 100 µM. In the series on human coronavirus OC43, the “effect on virus titer (in words)” value was “reduce virus titer in a dose-dependent manner” and the reduced virus titer was ~1,000 fold.

As to `CN(C)c1nc(N)c(C(=O)NC(=N)N)nc1C#Cc1ccccc1` [DMA-135], the “affinity for SL4 (IDA)” value with SARS-CoV-2 SL4 RNA was “weak affinity”. In [2], the “reduction of FLuc activity” value was “approximately 50%”. Further, in the series with VeroE6 cells, the “cellular viability as measured by ATP content” value is “without measurable effect on cellular viability”. In the series on SARS-CoV-2 [3], the “viral titer compared to DMSO (TCID50 assay)” value is recorded as “dose-dependent reduction in viral titer” and the “antiviral activity compared to parent scaffold DMA-01” value was “improved antiviral activity”. In the series on SARS-CoV-2 [5], the concentration for half-maximal inhibition (IC50) is roughly 10 µM. In addition, the “affinity for SL1 (IDA)” value in the series with SARS-CoV-2 SL1 RNA is reported as “weak affinity”. In addition, the cell viability result with Vero E6 cells is listed as “do not significantly reduce cell viability”. This compound also yielded a half-maximal cytotoxic concentration (CC50) at 96 h in series [4] greater than 100 µM. Further, the “affinity for SL6 (IDA)” value in the series with SARS-CoV-2 SL6 RNA was “weak affinity”. In the series on human coronavirus OC43, the “effect on virus titer (in words)” value was “reduce virus titer in a dose-dependent manner” and the reduced virus titer is ~1,000 fold.

Consider `CN(C)c1nc(N)c(C(=O)NC(=N)N)nc1-c1ccc(-c2ccccc2)cc1` [DMA-155], for which the “reduction of FLuc activity” value in series [2] is on record as roughly 90%. In addition, in the series with SARS-CoV-2 [3], the “antiviral activity compared to parent scaffold DMA-01” value is “improved antiviral activity”. The IC50 with SARS-CoV-2 [5] was roughly 16 µM. In addition, the cell viability result in the series with Vero E6 cells is “do not significantly reduce cell viability”. The cytotoxic concentration (CC50) at 96 h in series [4] was roughly 90 µM. For the same compound, the “affinity for SL6 (IDA)” value in the series with SARS-CoV-2 SL6 RNA is reported as “strong binder with highest affinity for SL6”. Besides, in the series with human coronavirus OC43, the “effect on virus titer (in words)” value is “reduce virus titer in a dose-dependent manner” and the reduced virus titer was ~1,000 fold.
